# According to patent US11325899B2, “Benzofurane and benzothiophene derivatives as PGE2 receptor modulators” (IDORSIA PHARMACEUTICALS LTD, priority 2017, dated 2022):
# pIC50: −log10 of the molar value.
# Target: T1, EP4 receptor (Homo sapiens, UniProt P35408)
# T1 construct: BT549 breast cancer cells, express high endogenous EP4 levels and very low EP2 levels; host or cells: BT549 breast cancer cells
# Experiment: hEP4 cAMP assay (BT549 breast cancer cells, HTRF cAMP, PGE2 stimulation)
# Type: cell-based
# Conditions: antagonistic activity, PGE2 6 nM (EC80)
# Summary of the method: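 BT549 cells, with endogenous EP4 and very low EP2, were preincubated 45 min at room temperature with compound in HBSS/HEPES/BSA buffer with 2 mM IBMX. They were then stimulated 30 min with 6 nM PGE2 (EC80). cAMP was measured by HTRF competitive immunoassay against a calibrator; IC50 from duplicate dose-response as % of DMSO control.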
# T1 sequence (P35408 whole entry): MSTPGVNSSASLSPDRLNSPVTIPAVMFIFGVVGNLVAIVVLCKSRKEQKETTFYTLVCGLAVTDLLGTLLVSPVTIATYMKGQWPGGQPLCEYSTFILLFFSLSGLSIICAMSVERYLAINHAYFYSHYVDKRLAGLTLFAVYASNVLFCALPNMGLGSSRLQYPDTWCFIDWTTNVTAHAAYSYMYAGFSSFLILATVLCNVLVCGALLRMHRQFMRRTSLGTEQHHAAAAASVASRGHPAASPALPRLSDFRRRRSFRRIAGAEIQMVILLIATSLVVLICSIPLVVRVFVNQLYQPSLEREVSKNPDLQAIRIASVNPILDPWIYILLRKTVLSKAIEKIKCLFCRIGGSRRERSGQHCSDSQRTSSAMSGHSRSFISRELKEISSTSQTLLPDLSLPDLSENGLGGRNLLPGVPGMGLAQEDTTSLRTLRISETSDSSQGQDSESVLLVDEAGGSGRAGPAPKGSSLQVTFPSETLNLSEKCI
row,pIC50,Structure (SMILES)
1,7.33,"CCOc1cc(-c2cc(NCCc3c(C#N)sc4c(OC)cccc34)ncn2)ccc1C(=O)O [Example 54, 4-{6-[2-(2-Cyano-7-methoxy-benzo[b]thiophen-3-yl)-ethylamino]-pyrimidin-4-yl}-2-ethoxy-benzoic acid]"
2,6.86,"CCOc1cc(-c2cc(NCCc3c(C)sc4c(OC)ccc(F)c34)ncn2)ccc1C(=O)O [Example 55, 2-Ethoxy-4-{6-[2-(4-fluoro-7-methoxy-2-methyl-benzo[b]thiophen-3-yl)-ethylamino]-pyrimidin-4-yl}-benzoic acid]"
3,6.73,"CCOc1cc(-c2cc(NCCc3c(C)sc4c(C)cc(F)cc34)ncn2)ccc1C(=O)O [Example 56, 2-Ethoxy-4-{6-[2-(5-fluoro-2,7-dimethyl-benzo[b]thiophen-3-yl)-ethylamino]-pyrimidin-4-yl}-benzoic acid]"
4,6.66,"CCOc1cc(-c2cc(NCCc3c(C)sc4c(OC)ccc(Cl)c34)ncn2)ccc1C(=O)O [Example 57, 4-{6-[2-(4-Chloro-7-methoxy-2-methyl-benzo[b]thiophen-3-yl)-ethylamino]-pyrimidin-4-yl}-2-ethoxy-benzoic acid]"
5,6.56,"CCOc1cc(-c2cc(NCCc3c(Br)sc4c(C)cc(F)cc34)ncn2)ccc1C(=O)O [Example 58, 4-{6-[2-(2-Bromo-5-fluoro-7-methyl-benzo[b]thiophen-3-yl)-ethylamino]-pyrimidin-4-yl}-2-ethoxy-benzoic acid]"
6,6.55,"CCOc1cc(-c2cc(NCCc3c(Cl)sc4c(C)cc(F)cc34)ncn2)ccc1C(=O)O [Example 59, 4-{6-[2-(2-Chloro-5-fluoro-7-methyl-benzo[b]thiophen-3-yl)-ethylamino]-pyrimidin-4-yl}-2-ethoxy-benzoic acid]"
7,6.46,"CCOc1cc(-c2cc(NCCc3c(C)sc4c(C)cccc34)ncn2)ccc1C(=O)O [Example 60, 4-{6-[2-(2,7-Dimethyl-benzo[b]thiophen-3-yl)-ethylamino]-pyrimidin-4-yl}-2-ethoxy-benzoic acid]"
8,6.45,"CCOc1cc(-c2cc(NCCc3c(C)sc4c(C)ccc(F)c34)ncn2)ccc1C(=O)O [Example 61, 2-Ethoxy-4-{6-[2-(4-fluoro-2,7-dimethyl-benzo[b]thiophen-3-yl)-ethylamino]-pyrimidin-4-yl}-benzoic acid]"
9,6.41,"CCOc1cc(-c2cc(NCCc3c(C)sc4c(C)c(F)ccc34)ncn2)ccc1C(=O)O [Example 62, 2-Ethoxy-4-{6-[2-(6-fluoro-2,7-dimethyl-benzo[b]thiophen-3-yl)-ethylamino]-pyrimidin-4-yl}-benzoic acid]"
10,6.35,"CCOc1cc(-c2cc(NCCc3c(C)sc4c(Cl)ccc(Cl)c34)ncn2)ccc1C(=O)O [Example 63, 4-{6-[2-(4,7-Dichloro-2-methyl-benzo[b]thiophen-3-yl)-ethylamino]-pyrimidin-4-yl}-2-ethoxy-benzoic acid]"
11,6.25,"CCOc1cc(-c2cc(NCCc3c(C)sc4c(Cl)cc(F)cc34)ncn2)ccc1C(=O)O [Example 65, 4-{6-[2-(7-Chloro-5-fluoro-2-methyl-benzo[b]thiophen-3-yl)-ethylamino]-pyrimidin-4-yl}-2-ethoxy-benzoic acid]"
12,6.22,"CCOc1cc(-c2cc(NCCc3c(C)sc4c(C)ccc(Cl)c34)ncn2)ccc1C(=O)O [Example 66, 4-{6-[2-(4-Chloro-2,7-dimethyl-benzo[b]thiophen-3-yl)-ethylamino]-pyrimidin-4-yl}-2-ethoxy-benzoic acid]"
13,6.20,"CCOc1cc(-c2cc(NCCc3c(C)oc4c(OC)ccc(F)c34)ncn2)ccc1C(=O)O [Example 67, 2-Ethoxy-4-{6-[2-(4-fluoro-7-methoxy-2-methyl-benzofuran-3-yl)-ethylamino]-pyrimidin-4-yl}-benzoic acid]"
14,6.01,"CCOc1cc(-c2cc(NCCc3c(C)oc4c(OC)cc(Cl)cc34)ncn2)ccc1C(=O)O [Example 70, 4-{6-[2-(5-Chloro-7-methoxy-2-methyl-benzofuran-3-yl)-ethylamino]-pyrimidin-4-yl}-2-ethoxy-benzoic acid]"
15,5.80,"CCOc1cc(-c2cc(NCCc3c(C)sc4ccccc34)ncn2)ccc1C(=O)O [Example 72, 2-Ethoxy-4-{6-[2-(2-methyl-benzo[b]thiophen-3-yl)-ethylamino]-pyrimidin-4-yl}-benzoic acid]"
16,6.95,"COc1cc(Cl)cc2c(CCNc3cc(-c4ccc(C(=O)O)c(OC5CC5)c4)ncn3)c(C)oc12 [Example 83, 4-{6-[2-(5-Chloro-7-methoxy-2-methyl-benzofuran-3-yl)-ethylamino]-pyrimidin-4-yl}-2-cyclopropoxy-benzoic acid]"
17,6.93,"COc1ccc(F)c2c(CCNc3cc(-c4ccc(C(=O)O)c(OC5CC5)c4)ncn3)c(C)sc12 [Example 84, 2-Cyclopropoxy-4-{6-[2-(4-fluoro-7-methoxy-2-methyl-benzo[b]thiophen-3-yl)-ethylamino]-pyrimidin-4-yl}-benzoic acid]"
18,6.59,"COc1cc(F)c(F)c2c(CCNc3cc(-c4ccc(C(=O)O)c(OC5CC5)c4)ncn3)c(C)oc12 [Example 85, 2-Cyclopropoxy-4-{6-[2-(4,5-difluoro-7-methoxy-2-methyl-benzofuran-3-yl)-ethylamino]-pyrimidin-4-yl}-benzoic acid]"
19,6.54,"Cc1sc2c(C)cc(F)cc2c1CCNc1cc(-c2ccc(C(=O)O)c(OCCO)c2)ncn1 [Example 86, 4-{6-[2-(5-fluoro-2,7-dimethyl-benzo[b]thiophen-3-yl)-ethylamino]-pyrimidin-4-yl}-2-(2-hydroxy-ethoxy)-benzoic acid]"

# The remaining lines, values behind:
row,Structure (SMILES),pIC50
1,"CSc1cc(-c2cc(NCCc3c(C)sc4c(C)cccc34)ncn2)cc(F)c1C(=O)O [Example 47, 4-{6-[2-(2,7-Dimethyl-benzo[b]thiophen-3-yl)-ethylamino]-pyrimidin-4-yl}-2-fluoro-6-methylsulfanyl-benzoic acid]",6.00
2,"CSc1cc(-c2cc(NCCc3c(C)sc4c(C)cccc34)ncn2)cc(Cl)c1C(=O)O [Example 50, 2-Chloro-4-{6-[2-(2,7-dimethyl-benzo[b]thiophen-3-yl)-ethylamino]-pyrimidin-4-yl}-6-methylsulfanyl-benzoic acid]",6.22
3,"CCOc1cc(-c2cc(NCCc3c(C)sc4c(C)cc(F)cc34)ncn2)sc1CC(=O)O [Example 52, (3-Ethoxy-5-{6-[2-(5-fluoro-2,7-dimethyl-benzo[b]thiophen-3-yl)-ethylamino]-pyrimidin-4-yl}-thiophen-2-yl)-acetic acid]",6.64
4,"CCOc1cc(-c2cc(NCCc3c(C#N)sc4c(C)cc(F)cc34)ncn2)ccc1C(=O)O [Example 53, 4-{6-[2-(2-Cyano-5-fluoro-7-methyl-benzo[b]thiophen-3-yl)-ethylamino]-pyrimidin-4-yl}-2-ethoxy-benzoic acid]",7.36
5,"CCOc1cc(-c2cc(NCCc3c(C)oc4c(C)cc(Cl)cc34)ncn2)ccc1C(=O)O [Example 64, 4-{6-[2-(5-Chloro-2,7-dimethyl-benzofuran-3-yl)-ethylamino]-pyrimidin-4-yl}-2-ethoxy-benzoic acid]",6.26
6,"CCOc1cc(-c2cc(NCCc3c(C)oc4c(Cl)cccc34)ncn2)ccc1C(=O)O [Example 68, 4-{6-[2-(7-Chloro-2-methyl-benzofuran-3-yl)-ethylamino]-pyrimidin-4-yl}-2-ethoxy-benzoic acid]",6.15
7,"CCOc1cc(-c2cc(NCCc3c(C)oc4c(C)cc(F)cc34)ncn2)ccc1C(=O)O [Example 69, 2-Ethoxy-4-{6-[2-(5-fluoro-2,7-dimethyl-benzofuran-3-yl)-ethylamino]-pyrimidin-4-yl}-benzoic acid]",6.12
8,"CCOc1cc(-c2cc(NCCc3c(C)oc4c(Cl)cc(Cl)cc34)ncn2)ccc1C(=O)O [Example 71, 4-{6-[2-(5,7-Dichloro-2-methyl-benzofuran-3-yl)-ethylamino]-pyrimidin-4-yl}-2-ethoxy-benzoic acid]",5.99
9,"CCOc1cc(-c2cc(NCCc3c(Cl)sc4ccccc34)ncn2)ccc1C(=O)O [Example 75, 4-{6-[2-(2-chloro-benzo[b]thiophen-3-yl)-ethylamino]-pyrimidin-4-yl}-2-ethoxy-benzoic acid]",5.94
10,"Cc1sc2c(C)cccc2c1CCNc1cc(-c2ccc3c(C(=O)O)coc3c2)ncn1 [Example 76, 6-{6-[2-(2,7-Dimethyl-benzo[b]thiophen-3-yl)-ethylamino]-pyrimidin-4-yl}-benzofuran-3-carboxylic acid]",6.28
11,"Cc1sc2c(C)cccc2c1CCNc1cc(-c2ccc3cc(C(=O)O)oc3c2)ncn1 [Example 77, 6-{6-[2-(2,7-Dimethyl-benzo[b]thiophen-3-yl)-ethylamino]-pyrimidin-4-yl}-benzofuran-2-carboxylic acid]",6.89
12,"Cc1sc2c(C)cc(F)cc2c1CCNc1cc(-c2ccc(-c3nc(=O)[nH]o3)cc2)ncn1 [Example 79, 5-(4-{6-[2-(5-Fluoro-2,7-dimethyl-benzo[b]thiophen-3-yl)-ethylamino]-pyrimidin-4-yl}-phenyl)-[1,2,4]oxadiazol-3(2H)-one [tautomeric form: 5-(4-(6-((2-(5-fluoro-2,7-dimethylbenzo[b]thiophen-3-yl)ethyl)amino)pyrimidin-4-yl)phenyl)-[1,2,4]oxadiazol-3-ol]]",7.04
13,"Cc1sc2c(C)cc(F)cc2c1CCNc1cc(-c2cc3c(C(=O)O)cccc3[nH]2)ncn1 [Example 82, 2-{6-[2-(5-Fluoro-2,7-dimethyl-benzo[b]thiophen-3-yl)-ethylamino]-pyrimidin-4-yl}-1H-indole-4-carboxylic acid]",6.86
14,"CCCSc1cc(-c2cc(NCCc3c(C)sc4c(C)cccc34)ncn2)ccc1C(=O)O [Example 87, 4-{6-[2-(2,7-Dimethyl-benzo[b]thiophen-3-yl)-ethylamino]-pyrimidin-4-yl}-2-propylsulfanyl-benzoic acid]",6.35
